# Key:
# [1] = NMR line width of half-amplitude (mobility of CP); type: physicochemical; details: line width at half amplitude of methylene protons, 1H-NMR
# Protocol: The mobility of CP in the compositions was evaluated by NMR, by measuring the line widths of half-amplitude (Hz) of methylene protons. Compositions were diluted with deuterium oxide by 3-fold. Neat CP was diluted with chloroform-d. The compositions were loaded into NMR tubes and their ^1H-NMR spectra were examined by Avance 400 spectrometer (Bruker, Bremen, Germany).
# The mobility of solid fatty ester in lipid cores of the CP-containing compositions was examined by proton NMR. The line width of signals for neat CP was 3.50 Hz.
# [2] = In vivo real-time optical imaging after IV injection; design: species or system Sprague-Dawley rats; details: rats
# Protocol: Male Sprague-Dawley rats aged 8˜10 weeks was supplied by Lasco (Taipei, Taiwan). Animal experimental protocol was approved by the Institutional Animal Care and Use Committee of Chang Gung University, Taiwan. The rats had free access to water and food at all time. The rats were anesthetized and injected with the compositions of the present invention or the control solution (dimethyl sulfoxide:Tween 80:normal saline=4:2:4) at a DiR dose of 40 μg/kg via femoral vein. In vivo real-time imaging was acquired using Pearl® Impulse at NIR wavelength. Rats were sacrificed 4 h post-injection. The following organs were collected and washed with normal saline: skin, muscle, heart, lungs, liver, spleen, and kidneys. The fluorescence intensity in these organs was assessed Ex Vivo by Pearl® Impulse. In Vivo optical images were taken after ICG, control DiR solution (with 40% v/w dimethyl sulfoxide) and S1-S4 compositions were administered into the rats via intravenous (IV) injection.
Compound,Line width (Hz) [1],time post-injection at which fluorescence is detected in the liver (liver clearance) [2],imaging time ([2]; fluorescence activity in large and small vessels)
"CCCCCCCCCCCCCCCCOC(=O)CCCCCCCCCCCCCCC [CP, Cetyl palmitate]",3.50 Hz,–,–
"CC1(C)C(/C=C/C=C/C=C/C=C2\N(CCCCS(=O)(=O)O)c3ccc4ccccc4c3C2(C)C)=[N+](CCCCS(=O)(=O)[O-])c2ccc3ccccc3c21 [ICG, Indocyanine green]",–,≤ 5 min,about 5 min
